Values quoted from earlier work in patent US20190054044A1, “ORAL DOSAGE FORM OF BOTH CLOMIPHENE ISOMERS AND METHOD OF USING SAME TO TREAT SECONDARY HYPOGONADISM AND MINIMIZE DRUG SIDE EFFECTS IN MEN” (ASPEN PARK PHARMACEUTICALS, INC., priority 2016, published 2019).
Where a name gives a salt, the structure may show the parent alone.

Columns and labels:
[1] = baboons
[2] = men
[3] = commercial doses (25 mg PO daily or 50 mg PO every other day)

## CCN(CC)CCOc1ccc(/C(=C(\Cl)c2ccccc2)c2ccccc2)cc1 (single isomer, unassigned) [cis-isomer of clomiphene]
[1]; range of doses tested
  LH secretion: inhibited LH secretion
  peripheral testosterone: reduced peripheral testosterone towards castrate blood levels

## CCN(CC)CCOc1ccc(C(=C(Cl)c2ccccc2)c2ccccc2)cc1 [CLOMID, clomiphene citrate]
[2]
  safety for long-term management of hypogonadism: safe
[2]; long-term
  T levels: raised T levels substantially
  osteopenia/osteoporosis: improving osteopenia/osteoporosis
[3]
  bone mineral density: decrease bone mineral density
  risk of fractures: increase the risk of fractures

## CCN(CC)CCOc1ccc(/C(=C(/Cl)c2ccccc2)c2ccccc2)cc1 [ANDROXAL, trans clomiphene citrate]
Clinical study
  changes in visual acuity noted as an adverse event: 0.2%
  fatigue (side effect incidence): 2.8%
  headache (side effect incidence): 6.6%
  muscle spasms (side effect incidence): 4%
  transient blurred vision (side effect incidence): 1.4%
Clinical study, conducted during the cold, flu and allergy season
  upper respiratory tract infections (side effect incidence): 11.6%
Treated versus placebo subjects, clinical studies
  number of skeletal fractures: Increase in number of skeletal fractures

## CCN(CC)CCOc1ccc(/C(=C(/Cl)c2ccccc2)c2ccccc2)cc1 [ENCLOMID]
[1]
  total serum testosterone: significantly and statistically raised total serum testosterone
